{"source": "patent US11254663B2", "about": "(BRISTOL-MYERS SQUIBB COMPANY, priority 2019, dated 2022)", "data": [{"molecular_target": "FXR (Homo sapiens (Human), UniProt Q96RI1)", "sequence (Q96RI1 262-486)": "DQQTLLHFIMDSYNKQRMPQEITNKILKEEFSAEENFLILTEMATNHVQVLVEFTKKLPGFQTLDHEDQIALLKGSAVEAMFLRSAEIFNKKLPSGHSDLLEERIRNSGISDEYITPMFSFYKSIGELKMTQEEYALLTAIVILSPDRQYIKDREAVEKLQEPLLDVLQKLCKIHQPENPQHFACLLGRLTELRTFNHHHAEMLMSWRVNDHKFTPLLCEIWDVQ", "experiment": "FXR EC50 (FXR agonist potency reported with each Example)", "assay_type": "cell-based", "units": {"EC50": "µM"}, "values": [{"smiles": "O=C(N(CC12CCC(c3nc(C4CC4)no3)(CC1)CC2)c1cccc(-c2cnn(C3COC3)c2)c1)C12CC(F)(C1)C2", "note": "[Example 150, N-((4-(3-cyclopropyl-1,2,4-oxadiazol-5-yl)bicyclo[2.2.2]octan-1-yl)methyl)-3-fluoro-N-(3-(1-(oxetan-3-yl)-1H-pyrazol-4-yl)phenyl)bicyclo[1.1.1]pentane-1-carboxamide]", "EC50": 0.087}, {"smiles": "CC(=O)NC1(c2nc(-c3cccc(N(CC45CCC(c6nc(C7CC7)no6)(CC4)CC5)C(=O)C45CC(F)(C4)C5)c3)no2)CC1", "note": "[Example 111, N-(3-(5-(1-acetamidocyclopropyl)-1,2,4-oxadiazol-3-yl)phenyl)-N-((4-(3-cyclopropyl-1,2,4-oxadiazol-5-yl)bicyclo[2.2.2]octan-1-yl)methyl)-3-fluorobicyclo[1.1.1]pentane-1-carboxamide]", "EC50": 0.12}, {"smiles": "COC(C)(C)c1coc(-c2cccc(N(CC34CCC(c5nc(C6CC6)no5)(CC3)CC4)C(=O)C34CC(F)(C3)C4)c2)n1", "note": "[Example 79, N-((4-(3-cyclopropyl-1,2,4-oxadiazol-5-yl)bicyclo[2.2.2]octan-1-yl)methyl)-3-fluoro-N-(3-(4-(2-methoxypropan-2-yl)oxazol-2-yl)phenyl)bicyclo[1.1.1]pentane-1-carboxamide]", "EC50": 0.194}, {"smiles": "O=C(N(CC12CCC(c3nc(C4CC4)co3)(CC1)CC2)c1cccc(-c2cnc(C3CC3)o2)c1)C12CC(F)(C1)C2", "note": "[Example 82, N-((4-(4-cyclopropyloxazol-2-yl)bicyclo[2.2.2]octan-1-yl)methyl)-N-(3-(2-cyclopropyloxazol-5-yl)phenyl)-3-fluorobicyclo[1.1.1]pentane-1-carboxamide]", "EC50": 0.048}, {"smiles": "CCOc1ncc(-c2cccc(N(CC34CCC(c5ccc(C(C)(C)C#N)cc5)(CC3)OC4)C(=O)C34CC(F)(C3)C4)c2)o1", "note": "[Example 51, N-((1-(4-(2-cyanopropan-2-yl)phenyl)-2-oxabicyclo[2.2.2]octan-4-yl)methyl)-N-(3-(2-ethoxyoxazol-5-yl)phenyl)-3-fluorobicyclo[1.1.1]pentane-1-carboxamide]", "EC50": 0.025}, {"smiles": "CC(C)c1nc(-c2cccc(N(CC34CCC(c5ccc(C(F)(F)F)cn5)(CC3)CC4)C(=O)C34CC(F)(C3)C4)c2)no1", "note": "[Example 187, 3-fluoro-N-(3-(5-isopropyl-1,2,4-oxadiazol-3-yl)phenyl)-N-((4-(5-(trifluoromethyl)pyridin-2-yl)bicyclo[2.2.2]octan-1-yl)methyl)bicyclo[1.1.1]pentane-1-carboxamide]", "EC50": 0.605}, {"smiles": "CCOc1nnc(-c2cccc(N(CC34CCC(c5nc(C6CC6)no5)(CC3)CC4)C(=O)C3CCC(F)(F)C3)c2)o1", "note": "(stereo not shown) [Example 55, N-((4-(3-cyclopropyl-1,2,4-oxadiazol-5-yl)bicyclo[2.2.2]octan-1-yl)methyl)-N-(3-(5-ethoxy-1,3,4-oxadiazol-2-yl)phenyl)-3,3-difluorocyclopentane-1-carboxamide]", "EC50": 0.127}, {"smiles": "CCOc1nnc(-c2cccc(N(CC34CCC(c5nc(C6CC6)no5)(CC3)CC4)C(=O)C3CC(C(F)F)C3)c2)o1", "note": "(stereo not shown) [Example 56, N-((4-(3-cyclopropyl-1,2,4-oxadiazol-5-yl)bicyclo[2.2.2]octan-1-yl)methyl)-3-(difluoromethyl)-N-(3-(5-ethoxy-1,3,4-oxadiazol-2-yl)phenyl)cyclobutane-1-carboxamide]", "EC50": 0.275}, {"smiles": "O=C(C1CC(C(F)F)C1)N(CC12CCC(c3nc(C4CC4)no3)(CC1)CC2)c1cccc(-c2cc(C3CC3)on2)c1", "note": "(stereo not shown) [Example 58, N-((4-(3-cyclopropyl-1,2,4-oxadiazol-5-yl)bicyclo[2.2.2]octan-1-yl)methyl)-N-(3-(5-cyclopropylisoxazol-3-yl)phenyl)-3-(difluoromethyl)cyclobutane-1-carboxamide]", "EC50": 0.039}, {"smiles": "O=C(C1CCC(F)(F)C1)N(CC12CCC(c3nc(C4CC4)no3)(CC1)CC2)c1cccc(-c2nc(CC3CC3)no2)c1", "note": "(stereo not shown) [Example 67, N-((4-(3-cyclopropyl-1,2,4-oxadiazol-5-yl)bicyclo[2.2.2]octan-1-yl)methyl)-N-(3-(3-(cyclopropylmethyl)-1,2,4-oxadiazol-5-yl)phenyl)-3,3-difluorocyclopentane-1-carboxamide]", "EC50": 0.202}]}]}
